Data as given in ChEMBL document CHEMBL5729371, “Compound functioning as bromodomain protein inhibitor, and composition” (2022).

How the values were obtained:
[1] = molecular target: T1, Bromodomain-containing protein 4 (Homo sapiens, UniProt O60885); experiment: (§1) Inhibitory Activity Assay: The assays of BRD4 (D1) and BRD4 (D2) were conducted in a 384-well polystyrene plate. The test compounds were first serially diluted in DMSO and the test compound/DMSO were transferred to 384-well plates. The final concentration of DMSO in the assay was 0.1%. 2 volumes of protein/peptide mixture were added into 384-well plates, then 2 volumes of assay mixture were added, and shake for 30 s. The plate was incubated at room temperature for 2 h. Then the HTRF signal on EnVision was readed.
[2] = molecular target: T1, Bromodomain-containing protein 4; experiment: as §1; remark: listed apart in the source

An IC50 [1] of 6.9 nM and an IC50 [2] of 1.7 nM were found for `Cc1nc2ncc(-c3cn(C)c(=O)c4[nH]ccc34)nc2n1Cc1ccc(Cl)cc1` in this work.

An IC50 [1] of 1 nM and an IC50 [2] of 0.4 nM were found for `CCS(=O)(=O)Nc1cc(-c2cn(C)c(=O)c3[nH]ccc23)cc2c1nc(C)n2Cc1ccc(Cl)cc1` in this work.

An IC50 [1] of 4.2 nM and an IC50 [2] of 1.4 nM were found for `Cc1nc2ncc(-c3cn(C)c(=O)c4[nH]ccc34)cc2n1Cc1cccc(Cl)c1` in this work.
